Results: paper PMC6038798, “Dissecting how modular polyketide synthase ketoreductases interact with acyl carrier protein-attached substrates” (Chemical Communications (Cambridge, England), 2017)

Legend:
mKRa = target: T1, mKRa (Mycobacterium ulcerans, UniProt Q6MZA4); test: isothermal titration calorimetry; assay type: binding
T1 construct: gene mlsA1; excised A1-type ketoreductase domain of module 5 of MLSA1; recombinant, purified
Excerpt: isothermal titration calorimetry on mKRa

mKRb = target: T2, mKRb (Mycobacterium ulcerans, UniProt Q6MZ72); test: isothermal titration calorimetry; assay type: binding
T2 construct: gene mlsB; excised B1-type ketoreductase domain of module 7 of MLSB; recombinant, purified
Excerpt: isothermal titration calorimetry on mKRb

[1] = target: mKRb, B1-type ketoreductase (KR) domain from module 7 of MLSB of the mycolactone polyketide synthase (Mycobacterium ulcerans); test: ITC; ACP species titrated against the KR domain in the presence of excess NADP+ (oxidised cofactor); three repeat experiments
[2] = target: mKRb, B1-type ketoreductase (KR) domain from module 7 of MLSB of the mycolactone polyketide synthase (Mycobacterium ulcerans); test: ITC; ACP species injected into a solution of the KR domain in the presence of excess NADPH; three repeat experiments

| Compound | Kd (mKRa) [µM] | Kd (mKRb) [µM] | Kd [1] [nM] | Kd [2] [nM] | stoichiometry N [2] |
| --- | --- | --- | --- | --- | --- |
| NCCC(=O)O [compound 6, β-Alanine] | 0.97 ± 0.04 | 0.5 ± 0.09 | – | – | – |
| Acetoacetyl-mACPb (1b) (domain or fragment) | – | – | 380 | – | – |
| CC(C)(CO)[C@@H](O)C(=O)NCCC(=O)NCCS [compound 2, R-Pantetheine] | 1.1 ± 0.04 | 1.2 ± 0.3 | – | – | – |
| holo mACPa (1a) (domain or fragment) | – | – | – | 630 | – |
| holo mACPb (1a) (domain or fragment) | – | – | 750 | 610 | 1 |
| β-Hydroxybutyryl-mACPb (1c) (domain or fragment) | – | – | – | 270 | – |
| NCCS [compound 5, Cysteamine] | > 1000 | > 1000 | – | – | – |
| apo mACPa, acyl carrier protein domain cognate to mKRa (module 5 of MLSA1), apo form (domain or fragment) | – | – | – | 2200 | – |
| apo mACPb, acyl carrier protein domain cognate to mKRb (module 7 of MLSB), apo form (domain or fragment) | – | – | 2200 | 2600 | – |
| CC(C)(CO)[C@@H](O)C(=O)NCCC(=O)O [compound 3, Pantothenate] | 0.7 ± 0.13 | 0.7 ± 0.1 | – | – | – |
| CC(=O)NCCS [compound 7, N-Acetyl cysteamine] | 1.03 ± 0.02 | 1.4 ± 0.3 | – | – | – |
| CC(C)(CO)[C@@H](O)C(=O)O [compound 4, Pantoate] | > 1000 | 0.6 ± 0.1 | – | – | – |
